Entries after “also recorded” stand apart in the source; their conditions may differ.
How the values were obtained:
DOR [1] = tested on: DOR; set-up: method as in 2 sources, one per row (each row's own in cited_ref): ref 19 = [19]; PMID 29708942; doi:10.1097/j.pain.0000000000001262; 19. Drieu La Rochelle A. Guillemyn K. Dumitrascuta M. Martin C. Utard V. Quillet R. Schneider S. Daubeuf F. Willemse T. Mampuys P. A bifunctional-biased mu-opioid agonist-neuropeptide FF receptor anta ||| ref suppl. ref 1; conditions: cited from earlier work
mice [2] = tested on: mice; set-up: method as in 2 sources, ref 19 (suppl. ref 1) ||| ref 19 = [19]; PMID 29708942; doi:10.1097/j.pain.0000000000001262; 19. Drieu La Rochelle A. Guillemyn K. Dumitrascuta M. Martin C. Utard V. Quillet R. Schneider S. Daubeuf F. Willemse T. Mampuys P. A bifunctional-biased mu-opioid agonist-neuropeptide FF receptor anta; conditions: s.c., cited from earlier work
mice [3] = assay: Open-field test, spontaneous locomotor activity; type: in vivo, mouse (male CD1); conditions: 7.4 µmol/kg s.c. daily for 4 days, vs saline; 30 min recording; n = 8 mice per group
human MOR [4] = molecular target: T1, human MOR (Homo sapiens, UniProt P35372); assay: biochemical; type: biochemical
mice [5] = tested on: mice; set-up: method as in suppl. ref 1; conditions: acute s.c., at effective antinociceptive doses, ref suppl. ref 1; cited from earlier work
mice [6] = tested on: mice; set-up: method as in earlier work; conditions: s.c., 7.4 µmol/kg where stated (mechanical and thermal stimulation), ref 19 (suppl. ref 1); cited from earlier work
human MOR [7] = tested on: human MOR; set-up: method as in 2 sources, one per row (each row's own in cited_ref): ref 19 = [19]; PMID 29708942; doi:10.1097/j.pain.0000000000001262; 19. Drieu La Rochelle A. Guillemyn K. Dumitrascuta M. Martin C. Utard V. Quillet R. Schneider S. Daubeuf F. Willemse T. Mampuys P. A bifunctional-biased mu-opioid agonist-neuropeptide FF receptor anta ||| ref 19 (suppl. ref 1); conditions: cited from earlier work
mice [8] = conditions: chronic s.c., at effective antinociceptive doses (7.4 µmol/kg), ref 19 (suppl. ref 1); cited from earlier work
mice [9] = tested on: mice; set-up: method as in suppl. ref 1; conditions: acute s.c., at effective antinociceptive doses, ref suppl. ref 1; cited from earlier work; remark: listed apart in the source
MOR [10] = molecular target: MOR; set-up: method as in suppl. ref 1; conditions: radioligand competitive binding; ref suppl. ref 1; read-out: Binding affinity Ki, MOR; cited from earlier work
MOR [11] = tested on: MOR; set-up: method as in 3 sources, one per row (each row's own in cited_ref): ref 19 = [19]; PMID 29708942; doi:10.1097/j.pain.0000000000001262; 19. Drieu La Rochelle A. Guillemyn K. Dumitrascuta M. Martin C. Utard V. Quillet R. Schneider S. Daubeuf F. Willemse T. Mampuys P. A bifunctional-biased mu-opioid agonist-neuropeptide FF receptor anta ||| ref suppl. ref 1 ||| ref 19 (suppl. ref 1); conditions: cited from earlier work
mice [12] = conditions: chronic s.c., at effective antinociceptive doses (7.4 µmol/kg), ref 19 (suppl. ref 1); cited from earlier work; remark: listed apart in the source
KOR = tested on: KOR; set-up: method as in 2 sources, one per row (each row's own in cited_ref): ref 19 = [19]; PMID 29708942; doi:10.1097/j.pain.0000000000001262; 19. Drieu La Rochelle A. Guillemyn K. Dumitrascuta M. Martin C. Utard V. Quillet R. Schneider S. Daubeuf F. Willemse T. Mampuys P. A bifunctional-biased mu-opioid agonist-neuropeptide FF receptor anta ||| ref suppl. ref 1; conditions: cited from earlier work
mice [13] = assay: Acetic acid-induced writhing assay (visceral pain); type: in vivo, mouse (male CD1); conditions: s.c.
NOP receptor [14] = molecular target: NOP receptor; set-up: method as in suppl. ref 1; conditions: radioligand competitive binding; ref suppl. ref 1; read-out: Binding affinity Ki, NOP receptor; cited from earlier work
NOP receptor [15] = tested on: NOP receptor; set-up: method as in 2 sources, one per row (each row's own in cited_ref): ref 19 = [19]; PMID 29708942; doi:10.1097/j.pain.0000000000001262; 19. Drieu La Rochelle A. Guillemyn K. Dumitrascuta M. Martin C. Utard V. Quillet R. Schneider S. Daubeuf F. Willemse T. Mampuys P. A bifunctional-biased mu-opioid agonist-neuropeptide FF receptor anta ||| ref suppl. ref 1; conditions: cited from earlier work
NPFF2R = tested on: NPFF2R; set-up: method as in suppl. ref 1; conditions: [35S]GTPγS binding assay; ref suppl. ref 1; cited from earlier work
mice [16] = tested on: mice; set-up: method as in earlier work; conditions: s.c., ref 19 (suppl. ref 1); cited from earlier work
human MOR [17] = molecular target: T1, human MOR; assay: cell-based; type: cell-based
mice [18] = conditions: chronic s.c., at effective antinociceptive doses (7.4 µmol/kg), ref 19 (suppl. ref 1); cited from earlier work; remark: listed apart in the source
DOR [19] = tested on: DOR; set-up: method as in 2 sources, one per row (each row's own in cited_ref): ref 19 = [19]; PMID 29708942; doi:10.1097/j.pain.0000000000001262; 19. Drieu La Rochelle A. Guillemyn K. Dumitrascuta M. Martin C. Utard V. Quillet R. Schneider S. Daubeuf F. Willemse T. Mampuys P. A bifunctional-biased mu-opioid agonist-neuropeptide FF receptor anta ||| ref suppl. ref 1; conditions: cited from earlier work; remark: listed apart in the source
NPFF1R = tested on: NPFF1R; set-up: method as in suppl. ref 1; conditions: [35S]GTPγS binding assay; ref suppl. ref 1; cited from earlier work
human MOR [20] = assay: Comparison of G protein activation ([35S]GTPγS binding) and β-arrestin2 recruitment (PathHunter)
[21] = tested on: neuropeptide FF receptor (NPFFR); set-up: method as in PMID 29708942; conditions: in vitro; cited from earlier work
mice [22] = assay: Conditioned place preference (CPP) test, rewarding effects; type: in vivo, mouse (male CD1); conditions: 7.4 µmol/kg s.c. daily for 4 days, vs saline; n = 8 mice per group
mice [23] = conditions: acute s.c., at effective antinociceptive doses (7.4 µmol/kg), ref 19 (suppl. ref 1); cited from earlier work
mice [24] = tested on: mice; set-up: method as in PMID 30571123; conditions: s.c.; cited from earlier work
[25] = in vivo; cited from earlier work
mice [26] = conditions: cited from earlier work
Excerpt: This is particularly important given the current rise in the abuse of prescription opioids, commonly MOR agonists. The MOR is established to play a major role in analgesia, but also on the undesirable opioid side effect of reward, with deletion of the gene encoding MOR (Oprm1) completely blocking opioid analgesia and reward behavior in rodents. To this aim, we used the conditioned place preference (CPP) paradigm, as described previously. The CPP is a w ...

mice [27] = conditions: 15.5 µmol/kg s.c. chronic, day 1 to day 4; cited from earlier work
[28] = molecular target: human mu-opioid receptor (MOR), stably expressed in CHO cells (CHO-hMOR), in membranes (human) (UniProt P35372)
[29] = cAMP accumulation assay, ref suppl. ref 1
[30] = relative to maximal effect of DAMGO (100%), HEK293 cells, ref 19 (suppl. ref 1)

T1 sequence (P35372 whole entry): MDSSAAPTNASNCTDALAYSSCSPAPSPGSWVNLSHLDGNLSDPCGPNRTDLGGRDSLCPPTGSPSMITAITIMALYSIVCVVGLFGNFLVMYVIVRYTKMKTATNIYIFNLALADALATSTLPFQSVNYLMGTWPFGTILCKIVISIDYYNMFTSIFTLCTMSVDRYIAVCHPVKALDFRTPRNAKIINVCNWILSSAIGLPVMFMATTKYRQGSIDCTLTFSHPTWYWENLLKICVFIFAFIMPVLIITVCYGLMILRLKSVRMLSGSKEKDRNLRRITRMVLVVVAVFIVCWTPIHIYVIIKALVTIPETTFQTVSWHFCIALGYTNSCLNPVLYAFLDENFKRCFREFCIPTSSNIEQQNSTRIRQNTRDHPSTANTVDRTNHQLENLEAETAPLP
Sequence of human mu-opioid receptor (MOR), stably expressed in CHO cells (CHO-hMOR), in membranes (human) (P35372 whole entry): as above

Molecule: Cc1cc(O)cc(C)c1C[C@H](N)C(=O)N[C@H](CCCNC(=N)N)C(=O)NC1Cc2ccccc2CN(CCC(=O)NC(CCCN2CCC(Cc3ccccc3)CC2)C(=O)N[C@@H](Cc2ccccc2)C(N)=O)C1=O (stereo partly drawn) [KGFF09, H-Dmt-DArg-Aba-βAla-Bpa-Phe-NH2]
- Emax, G protein activation, DOR (DOR [1]; [29]): 90%
- Functional profile at DOR (DOR [1]): agonist activity at the delta opioid receptor (DOR)
- Antinociception, radiant tail-flick test (mice [2]; ref 19 (suppl. ref 1)): yes and potent and long-lasting antinociceptive activity and very effective with long-lasting antinociceptive effects
- ED90, tail-flick test (mice [2]): 7.4 µmol/kg
- Potency vs morphine, tail-flick test (mice [2]): three-fold more potent than morphine
- Relation of 7.4 µmol/kg to tail-flick ED50 (mice [2]): three-fold antinociceptive ED50 dose
- Spontaneous locomotor activity, distance traveled (mice [3]): no and no impairment in the locomotor activity
- Functional profile at MOR in [35S]GTPγS binding (human MOR [4]): full agonist with high G protein coupling potency
- Potency increase compared to DAMGO, G protein activation (human MOR [4]): four-fold increase in potency compared to DAMGO
- Emax (human MOR [4]; read-out: Emax, [35S]GTPγS binding): 92 ± 9%
- Sedation/motor impairment (mice [5]): yes
- Antihyperalgesic effect, CFA-induced hyperalgesia (mice [6]): yes and potent and long-lasting antinociceptive activity and completely reduced pain behavior of mice to mechanical and thermal stimulation and very effective with long-lasting antinociceptive effects
- EC50 (human MOR [7]; HEK293 cells co-expressing cAMP Glosensor-20F and human MOR, ref 19 (suppl. ref 1), read-out: EC50, cAMP accumulation, MOR): 18.2 nM
- Functional profile in cAMP accumulation, MOR (human MOR [7]; HEK293 cells, human MOR): potent and full MOR agonist
- Emax, cAMP accumulation, MOR (human MOR [7]; [30]): 85%
- Withdrawal syndrome (mice [8]): no and reduced side effects and reduced opioid-induced side effects
- Constipation (mice [9]): yes
- Ki (MOR [10]): 2.43 nM
- EC50 (MOR [11]; HEK293 cells expressing eYFP-tagged β-arrestin-2, MOR-Rluc8, ref 19 (suppl. ref 1), read-out: EC50, BRET β-arrestin2 recruitment (Table S3)): 56.4 nM
- BRET β-arrestin2 recruitment and bias (MOR [11]; HEK293 cells, MOR): reduced efficacy (acting as a partial agonist) in inducing β-arrestin2 recruitment
- Signaling bias at MOR in vitro, earlier study (MOR [11]): G protein-biased MOR agonist
- Emax, BRET β-arrestin2 recruitment (Table S3) (MOR [11]; [30]): 42%
- Antinociceptive/analgesic tolerance (mice [12]): no and reduced side effects and reduced opioid-induced side effects
- Emax, G protein activation, KOR (KOR; [29]): 15%
- EC50 (KOR; cAMP accumulation assay, ref suppl. ref 1, read-out: EC50, G protein activation, KOR): > 10 µM
- Functional profile at KOR (KOR): antagonist profile
- Antinociceptive ED50, writhing assay (mice [13]; 30 min after administration, Litchfield and Wilcoxon): 0.079 µmol/kg
- Effect in writhing assay (mice [13]; mice): yes and dose-dependent inhibition of the writhing behavior
- Potency vs morphine, writhing assay (mice [13]; ratio of ED50 (morphine ED50 from ref 24)): 17 fold
- Ki (NOP receptor [14]): 209 nM
- Emax, G protein activation, NOP receptor (NOP receptor [15]; [29]): 7%
- EC50 (NOP receptor [15]; cAMP accumulation assay, ref suppl. ref 1, read-out: EC50, G protein activation, NOP receptor): > 10 µM
- Functional profile at NOP receptor (NOP receptor [15]): antagonist profile
- pA2, NPFF2R (NPFF2R): 7.77
- Antinociception, warm-water tail-withdrawal test (mice [16]): yes and potent and long-lasting antinociceptive activity and very effective with long-lasting antinociceptive effects
- β-arrestin2 recruitment (human MOR [17]): failed to robustly engage β-arrestin2 recruitment
- Emax (human MOR [17]; read-out: Emax, β-arrestin2 recruitment (PathHunter)): 57 ± 3%
- Opioid-induced hyperalgesia (mice [18]): no and reduced side effects and reduced opioid-induced side effects
- Binding affinity lower at DOR than at MOR (DOR [19]; DOR vs MOR): 77 fold
- Ki (DOR [19]; radioligand competitive binding, ref suppl. ref 1, read-out: Binding affinity Ki, DOR): 186 nM
- pA2, NPFF1R (NPFF1R): 7.25
- Decrease in potency, β-arrestin2 recruitment vs G protein activation (human MOR [20]; PathHunter vs [35S]GTPγS binding, human MOR): 153 fold
- Signaling bias at MOR (human MOR [20]; [35S]GTPγS binding vs PathHunter β-arrestin2): G protein-biased MOR agonist in vitro
- Functional profile at NPFFR [21]: NPFFR antagonist
- Rewarding effect, CPP (mice [22]): no and no significant CPP response compared to saline-treated animals
- Respiratory depression (mice [23]): less acute side effects; also recorded: reduced opioid-induced side effects

Molecule: CN1CC[C@]23c4c5ccc(O)c4O[C@H]2[C@@H](O)C=C[C@H]3[C@H]1C5 [morphine]
- ED50, writhing assay (mass) (mice [24]): 437 µg/kg
- ED50, writhing assay (molar) (mice [24]): 1.36 µmol/kg
- Sedation and locomotor activity [25]: known to produce sedation and to reduce locomotor activity
- Rewarding effect of morphine, CPP (mice [26]; 15.5 µmol/kg daily, vs saline): significant place preference compared to the saline group
- CPP with narcotic drugs (mice [26]; mice): produce CPP
- Spontaneous locomotor activity of morphine (mice [27]): significant hyperlocomotion from day 1 to day 4

Molecule: COc1ccc2c3c1O[C@H]1C(=O)CC[C@@]4(O)[C@@H](C2)N(C)CC[C@]314 [oxycodone]
- Sedation and locomotor activity [25]: known to produce sedation and to reduce locomotor activity

Molecule: KGFF09 (H-Dmt-DArg-Aba-βAla-Bpa-Phe-NH2) (peptide)
- [35S]GTPγS binding (G protein activation), membranes from CHO-hMOR cells: EC50 [28]: 8.28 nM
- [35S]GTPγS binding (G protein activation), membranes from CHO-hMOR cells: Emax (% of DAMGO) [28]: 92%

Molecule: [D-Ala2,N-Me-Phe4,Gly-ol5]enkephalin (DAMGO) (peptide)
- [35S]GTPγS binding (G protein activation), membranes from CHO-hMOR cells: EC50 [28]: 35 nM
- [35S]GTPγS binding (G protein activation), membranes from CHO-hMOR cells: Emax (%, the reference set to 100) [28]: 100%

Source: PMC9780937 (Molecules, 2022)
